From patent publication US7713942B2, “Cage-like microparticle complexes comprising sterols and saponins for delivery of polynucleotides” (Nordic Vaccine Technology A/S, priority 2001, dated 2010)
Values joined by “and” are separate entries in the source; they are usually repeats but may differ in a detail not shown here. Identical values can stand only once.

Legend:
[1] = Equilibrium-dialysis of ^14C-Mega 10 from ISCOM-matrix; conditions: water not replaced
Procedure: ISCOMs were prepared by combining Quil A, cholesterol and phophatidylcholine with the component to be inserted (e.g. lipopeptide). ISCOMs were allowed to form for 4 hours with stirring at 35° C. (room temperature for experiments with ^12C/^14C-Mega 10) followed by dialysis against phosphate buffered saline (pH 7.2) in Slide-A-Lyzer® cassettes (Pierce, Rockford, Ill.) or dialysis tubing (Visking, London, UK), MW cut-off 10,000. The concentration in the reaction mixture of Quil A ranged 0.9 mg/ml to 1.3 mg/ml for the different preparations (see Section 3), whereas the concentration of cholesterol and phophatidylcholine was 0.03% w/v in all experiments. The final concentration of Mega 10 was 4% w/v unless otherwise stated.
In the first experiment the kinetics of the Mega 10-dialysis was investigated. ISCOM-matrix was formed in the presence of 7% w/v ^12C/^14C-Mega 10 and Quil A at a concentration of 0.9 mg/ml. From a total volume of 18.3 ml sixteen aliquots of 1 ml were taken and set up for dialysis against water in 8 beakers of 1000 ml (2×1 ml bags per 1000 ml water). Four beakers were placed at room temperature and four at 4° C. with stirring. On each of the following days one beaker from both temperatures were taken and the contents of the individual dialysis bags (2×2 bags) counted after addition of water in order to compensate for differences in volume. Table 1 lists the amount of ^14C-Mega 10 remaining in each bag after dialysis for a certain period of time given as the percentage of cpm (counts per minute) relative to the initial ^14C-contents. […] However, the same end-point concentration of ^14C-Mega 10 was reached within four days (0.4-1%) despite of temperature. Anticipating that Mega 10 diffuses freely across the dialysis membrane one would expect the contents of dialysis bags to represent 0.51% of the total ^14C-Mega 10, as the volume of two bags (from one beaker) at equilibrium was 5.1 ml leaving approx. 995 ml in the beaker (5.1 ml/995 ml*100%=0.51%). And it is concluded that although dialysis at room temperature is faster than dialysis at 4° C. both methods are equally efficient in removing Mega 10 from ISCOM-matrix.

[2] = End-point-dialysis of ^14C-Mega 10 from ISCOM-matrix; conditions: for Amount of detergent remaining in bags: Room temperature, daily replacement of water
Procedure: In order to further investigate if Mega 10 could be completely removed from ISCOM-matrix a second experiment was designed. Here, four dialysis bags containing 1 ml of ISCOM-matrix prepared with 3.3% w/v ^12C/^14C-Mega 10 was placed in individual beakers containing 1000 ml of water. Dialysis was performed at room temperature with stirring. Each day one beaker was taken and the contents of the dialysis bag counted after which the dialysis buffer (water) of the remaining beakers was replaced.

[3] = dose-dependent, apparently nonspecific; cited from earlier work

Structure (SMILES)	Amount of detergent remaining in dialysis bags ([1]; 4° C., 1 day)	Amount of detergent remaining in dialysis bags ([1]; 4° C., 2 days)	Amount of detergent remaining in dialysis bags ([1]; 4° C., 3 days)	Amount of detergent remaining in dialysis bags ([1]; 4° C., 4 days)	Amount of detergent remaining in dialysis bags ([1]; Room temperature, 1 day)	Amount of detergent remaining in dialysis bags ([1]; Room temperature, 2 days)	Amount of detergent remaining in dialysis bags ([1]; Room temperature, 3 days)	Amount of detergent remaining in dialysis bags ([1]; Room temperature, 4 days)	Amount of detergent remaining in bags ([2]; 1 day)	Amount of detergent remaining in bags ([2]; 2 days)	Amount of detergent remaining in bags ([2]; 3 days)	Amount of detergent remaining in bags ([2]; 4 days)	original amount of detergent remaining within the dialysis bag ([2]; at equilibrium, with replacement of water)	immunomodulating activity [3]
CCCCCCCCCC(=O)N(C)CC(O)C(O)C(O)C(O)CO (centres unmarked) [^14C-Mega 10, N-Decanoyl-N-methylglucamide]	14.5 percentage of initial cpm and 13.5 percentage of initial cpm	2.2 percentage of initial cpm and 2.3 percentage of initial cpm	1.0 percentage of initial cpm and 1.3 percentage of initial cpm	0.7 percentage of initial cpm and 1.1 percentage of initial cpm	2.1 percentage of initial cpm	0.9 percentage of initial cpm	0.9 percentage of initial cpm	0.7 percentage of initial cpm and 0.4 percentage of initial cpm	0.23%	0.07%	0.06%	0.07%	0.07%	–
CC(=O)O[C@@H]1[C@H](O[C@@H]2O[C@@H](CO)[C@H](O)[C@H]2O)[C@@H](O[C@@H]2O[C@@H](C)[C@H](O[C@@H]3OC[C@@H](O)[C@H](O)[C@H]3O)[C@@H](O)[C@H]2O)[C@H](OC(=O)[C@]23CCC(C)(C)C[C@H]2C2=CC[C@@H]4[C@@]5(C)CC[C@H](O[C@@H]6O[C@H](C(=O)O)[C@@H](O)[C@H](O[C@@H]7OC[C@@H](O)[C@H](O)[C@H]7O)[C@H]6O[C@@H]6O[C@H](CO)[C@H](O)[C@H](O)[C@H]6O)[C@@](C)(C=O)[C@H]5CC[C@@]4(C)[C@]2(C)CC3)O[C@@H]1C [Squarroside A]	–	–	–	–	–	–	–	–	–	–	–	–	–	a suppressive effect at concentrations in the μg range and a stimulant effect in the pg range
